Structures can show the parent of a compound that is named as a salt.
Experiments:
anesthetised dogs = assay: Haemodynamic effects on anesthetised dogs; assay type: in vivo, dogs (labrador/harrier cross); details: dogs
Protocol: Haemodynamic effects of the compounds according to the invention on anesthetised pigs or dogs
The dogs, weighing between 16 and 26 kg, are the progeny of a labrador/harrier cross.
In the case of dogs the anesthesia is induced by sodium pentobarbitol (45 mg/jg i.v.) and maintained with an i.v. perfusion (flow rate of 8 mg/kg/h).
The pigs or dogs are placed under artificial respiration in ambient air. Analysis of the blood gases (pO2, pCO2) is carried out at regular intervals and oxygen can be supplied via the respirator, if necessary.
The haemodynamic parameters recorded include the left ventricular pressure (LVP; Millar PC350 Tip catheter inserted via the carotid artery), systemic blood pressure (BPs, BPd; full catheter in a femoral artery), the end pressure of the left ventricular diastole (LVEDP), the ventricular contractility (LVPdp/dtmax) and the heart rate (HR).
Following an equilibration period of the order of 45 minutes, the compounds studied are administered intraduodenally (i.d.) or intraveinously (i.v.) to several animals (1 to 4). The haemodynamic variables are recorded continuously for 1 to 3 hours, as a function of the period of action of the compound.
The effects of the compounds studied are shown as the absolute difference with respect to the base value (bv) measured before administration of the compounds and are shown in Table VII (a,b,c).
An antianginal activity is estimated by a fall in the BPs and the LVEDP (fall in venous return).

thoracic aorta = assay: Vasorelaxant effect on isolated vessels (rat thoracic aorta rings without endothelium, precontracted with noradrenalin); set-up: species or system Wistar rats; details: for Emax: Rattus norvegicus, maximum inhibition of noradrenalin effect, 10^-8 to 10^-4 M substance, read-out: Maximum Relaxation; for IC50: rat aorta, 10^-7 M noradrenalin contraction
Protocol: Vasorelaxant effect of the compounds according to the invention on isolated vessels.
Adult Wistar rats weighing between 250 and 350 g are anaesthetised by intraperitoneal injection of sodium pentobarbital (30 mg/kg). The thoracic aorta is rapidly removed and placed in a refrigerated and oxygenated solution of bicarbonate buffer of the Krebs-Ringer type (composition [mM]: NaCl, 118; KCl, 4.7; CaCl2, 2.5; MgSO4, 1.2; KH2 PO4, 1.2; NaHCO3, 25.0; disodium calcium salt of EDTA, 0.026; glucose 11.1). The aorta is dissected with the aim of removing the connective tissue and then cut into 6 rings (length 5-10 mm). The endothelium is removed by moderate abrasion of the intimal surface of the aortic segments with the aid of a pair of tweezers. These segments are then placed between two hooks in an isolated organ cell filled with 25 ml of bicarbonate buffer (pH 7.4), thermostat-controlled at 37° C. and oxygenated with the aid of a 95% O2 /5% CO2 mixture (pH 7.4). One of the hooks is fixed to a fixed point, while the second is connected to a transducer with the aim of measuring the variations in isometric voltage (expressed in grams). After an equilibration period of 30 min., the segments are progressively withdrawn so as to attain the level of base voltage for which the contractor response to noradrenalin (10^-7 M) is maximum (optimum voltage; average 2 g). The absence of endothelium is verified by addition of a single concentration of acetylcholine (10^-6 M), after precontraction of the vessels by noradrenalin (10^-7 M). The integrity of the vascular smooth muscle is also verified by adding a single concentration of a vasodilator whose response is independent of the presence of the endothelium, SIN-1 (10^-5 M). After this initial procedure, the aortas are washed, equilibrated for a period of 30 min and then recontracted (10^-7 M noradrenalin). The relaxant effect of the substance to be tested is then evaluated by adding increasing concentrations of this substance (from 10^-8 to 10^-4 M). The maximum inhibition of the concentration caused by noradrenalin (expressed as a percentage) is then calculated ("maximum relaxation"). When this maximum relaxation is greater than 50%, the concentration of substance tested producing a 50% inhibition of the maximum contraction (IC50) is calculated. Table V below collates the IC50 and the maximum relaxation percentages for the various compounds tested.

| Compound | Emax (thoracic aorta) | IC50 (thoracic aorta) | BPs (min), period of action (anesthetised dogs; 3 mg/kg i.d.) | BPs, difference to base value (anesthetised dogs; 3 mg/kg i.d.) | LVEDP (min), period of action (anesthetised dogs; 3 mg/kg i.d.) | LVEDP, difference to base value (anesthetised dogs; 3 mg/kg i.d.) | further results |
| --- | --- | --- | --- | --- | --- | --- | --- |
| O=C(N[C@H]1CO[C@H]2[C@@H]1OC[C@H]2O[N+](=O)[O-])[C@@H]1CSCN1 [Compound 40, 2-[[(4-L-Thiazolidinyl)carbonyl]amino]-2-deoxy-5-O-nitro-1,4:3,6-dianhydro-D-glucitol monohydrochloride] | 38% | > 100 µM |  |  |  |  | BPs (min), period of action (anesthetised dogs; 3 mg/kg i.v.): > 90 min; BPs, difference to base value (anesthetised dogs; 3 mg/kg i.v.): -10 mmHg; LVEDP (min), period of action (anesthetised dogs; 3 mg/kg i.v.): > 90 min; LVEDP, difference to base value (anesthetised dogs; 3 mg/kg i.v.): -1,0 mmHg |
| O=C(O[C@@H]1CO[C@H]2[C@@H]1OC[C@@H]2O[N+](=O)[O-])[C@@H]1CSCN1 [Compound 25, 5-O-[(4-L-Thiazolidinyl)carbonyl]-2-O-nitro-1,4:3,6-dianhydro-D-glucitol monohydrochloride] | 35% | > 100 µM |  |  |  |  | BPs (min), period of action (anesthetised dogs; 10 mg/kg i.d.): > 60 min; BPs, difference to base value (anesthetised dogs; 10 mg/kg i.d.): -30 mmHg; LVEDP (min), period of action (anesthetised dogs; 10 mg/kg i.d.): > 60 min; LVEDP, difference to base value (anesthetised dogs; 10 mg/kg i.d.): -3,0 mmHg |
| CC(=O)NCSC[C@H](NC(=O)OC(C)(C)C)C(=O)O[C@@H]1CO[C@H]2[C@@H]1OC[C@@H]2O[N+](=O)[O-] [Compound 26, S-[(Acetylamino)methyl]-N-[(t-butoxy)carbonyl]-L-cysteine ester of 2-O-nitro-1,4:3,6-dianhydro-D-glucitol] | 70% | 80 µM |  |  |  |  | BPs (min), period of action (anesthetised dogs; 10 mg/kg i.v.): > 90 min; BPs, difference to base value (anesthetised dogs; 10 mg/kg i.v.): -10 mmHg; LVEDP (min), period of action (anesthetised dogs; 10 mg/kg i.v.): > 90 min; LVEDP, difference to base value (anesthetised dogs; 10 mg/kg i.v.): 2,0 mmHg |
| CC(C)[C@H](NC(=O)[C@@H]1CSCN1)C(=O)N[C@H]1CO[C@H]2[C@@H]1OC[C@@H]2O[N+](=O)[O-] [Compound 64, 5-[[2-[[(4-L-thiazolidinyl)carbonyl]amino]-1-((2S)-2-isopropyl)-oxoethyl]amino]-5-deoxy-2-O-nitro-1,4:3,6-dianhydro-L-iditol monohydrochloride] | 84% | 51 µM | > 180 min | -25 mmHg | 150 min | -2,0 mmHg |  |
| NCC(=O)N[C@H]1CO[C@H]2[C@@H]1OC[C@H]2O[N+](=O)[O-] [Compound 16, Glycine amide of 2-amino-2-deoxy-5-O-nitro-1,4:3,6-dianhydro-D-glucitol monohydrochloride] | 41% | > 100 µM |  |  |  |  | BPs (min), period of action (anesthetised dogs; 10 mg/kg i.v.): > 30 min; BPs, difference to base value (anesthetised dogs; 10 mg/kg i.v.): -5 mmHg; LVEDP (min), period of action (anesthetised dogs; 10 mg/kg i.v.): > 30 min; LVEDP, difference to base value (anesthetised dogs; 10 mg/kg i.v.): -1,0 mmHg |
| O=C(CNC(=O)[C@@H]1CSCN1)O[C@H]1CO[C@H]2[C@@H]1OC[C@H]2O[N+](=O)[O-] [Compound 73, 2-O-[2-[[(4-L-thiazolidinyl)carbonyl]amino]-1-oxoethyl]-5-O-nitro-1,4:3,6-dianhydro-D-glucitol monohydrochloride] | 66% | 53 µM |  |  |  |  | BPs (min), period of action (anesthetised dogs; 3 mg/kg i.v.): 60 min; BPs, difference to base value (anesthetised dogs; 3 mg/kg i.v.): -15 mmHg; LVEDP (min), period of action (anesthetised dogs; 3 mg/kg i.v.): 60 min; LVEDP, difference to base value (anesthetised dogs; 3 mg/kg i.v.): -2,0 mmHg |
| CC(C)(C)OC(=O)N1CSC[C@H]1C(=O)N[C@@H](Cc1ccccc1)C(=O)N[C@H]1CO[C@H]2[C@@H]1OC[C@@H]2O[N+](=O)[O-] [Compound 65, 5-[[2-[[(3-t-butoxycarbonyl-4-L-thiazolidinyl)carbonyl]amino]-1-((2S)-2-benzyl)-oxoethyl]amino]-5-deoxy-2-O-nitro-1,4:3,6-dianhydro-L-iditol] | 100% | 20 µM | 0 min | 0 mmHg | 30 min | 1,0 mmHg |  |
| CC(C)[C@H](NC(=O)OC(C)(C)C)C(=O)N[C@H]1CO[C@H]2[C@@H]1OC[C@@H]2O[N+](=O)[O-] [Compound 9, N-[(t-Butoxy)carbonyl]-L-valine amide of 5-amino-5-deoxy-2-O-nitro-1,4:3,6-dianhydro-L-iditol] | 70% | 80 µM | > 60 min | 5 mmHg | 0 min | 0,0 mmHg |  |
| C[C@H](N)C(=O)N[C@H]1CO[C@H]2[C@@H]1OC[C@@H]2O[N+](=O)[O-] [Compound 8, L-Alanine amide of 5-amino-5-deoxy-2-O-nitro-1,4:3,6-dianhydro-L-iditol monohydrochloride] | 80% | 32 µM | > 150 min | -30 mmHg |  |  |  |
| NCC(=O)O[C@H]1CO[C@H]2[C@@H]1OC[C@H]2O[N+](=O)[O-] [Compound 2, Glycine ester of 5-O-nitro-1,4:3,6-dianhydro-D-glucitol monohydrochloride] | 52% | 100 µM |  |  |  |  | BPs (min), period of action (anesthetised dogs; 3 mg/kg i.v.): > 120 min; BPs, difference to base value (anesthetised dogs; 3 mg/kg i.v.): -10 mmHg; LVEDP (min), period of action (anesthetised dogs; 3 mg/kg i.v.): > 120 min; LVEDP, difference to base value (anesthetised dogs; 3 mg/kg i.v.): -1,0 mmHg |
| N[C@@H](Cc1ccccc1)C(=O)N[C@H]1CO[C@H]2[C@@H]1OC[C@@H]2O[N+](=O)[O-] [Compound 12, L-phenylalanine amide of 5-amino-5-deoxy-2-O-nitro-1,4:3,6-dianhydro-L-iditol monohydrochloride] | 100% | 2.5 µM | > 240 min | -30 mmHg |  |  |  |
| CC(C)(C)OC(=O)N1CSC[C@H]1C(=O)NCC(=O)N[C@H]1CO[C@H]2[C@@H]1OC[C@@H]2O[N+](=O)[O-] [Compound 60] | 53% | 87 µM | > 60 min | -15 mmHg | 0 min | 0,0 mmHg |  |
| NCC(=O)O[C@@H]1CO[C@H]2[C@@H]1OC[C@@H]2O[N+](=O)[O-] [Compound 3, Glycine ester of 2-O-nitro-1,4:3,6-dianhydro-D-glucitol monohydrochloride] | 63% | 79 µM | > 60 min | -10 mmHg | > 60 min | -4,5 mmHg |  |

From patent US5591758A, “Organic nitrates, processes for their preparation and their use in the treatment of cardiovascular diseases” (Laboratoires Hoechst, SA, priority 1991, dated 1997)
